Measured values reported in patent US20200216416A1, “QUINOLINE COMPOUNDS AS INHIBITORS OF TAM AND MET KINASES” (Array BioPharma Inc., priority 2019, published 2020).
Like-named read-outs stand apart in the source and are kept apart here.

What was measured:
[1] = target: T1, His-tagged recombinant human AXL cytoplasmic domain (Homo sapiens, UniProt P30530); assay: AXL Enzyme Assay (LanthaScreen Eu Kinase Binding); settings: averaged IC50; 60-minute incubation at 22° C.; TR-FRET
T1 construct: His-tagged recombinant human AXL cytoplasmic domain
T1 sequence (P30530 473-894 limits assumed): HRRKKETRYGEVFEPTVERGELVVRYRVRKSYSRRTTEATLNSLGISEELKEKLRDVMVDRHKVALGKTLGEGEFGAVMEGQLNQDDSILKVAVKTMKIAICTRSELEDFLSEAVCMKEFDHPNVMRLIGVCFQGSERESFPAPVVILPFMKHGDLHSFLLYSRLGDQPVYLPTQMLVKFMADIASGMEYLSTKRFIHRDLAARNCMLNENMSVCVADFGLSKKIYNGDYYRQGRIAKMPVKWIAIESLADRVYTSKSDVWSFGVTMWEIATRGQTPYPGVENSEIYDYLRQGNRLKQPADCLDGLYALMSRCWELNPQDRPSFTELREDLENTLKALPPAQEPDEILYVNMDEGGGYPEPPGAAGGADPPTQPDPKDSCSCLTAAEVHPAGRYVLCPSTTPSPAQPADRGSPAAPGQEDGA
Outline: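 TR-FRET binding-displacement format: 20 nM Alexa Fluor Tracer 236, 2 nM biotin-anti-His and 2 nM Eu-streptavidin in 25 mM HEPES pH 7.4, 10 mM MgCl2, 0.01% Triton X-100, 2% DMSO. After 60 min at 22 °C, ratiometric percent of control was fitted to a 4-parameter logistic curve, IC50 taken at 50 POC.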

[2] = target: T2, MDR1 (P-gp) (Homo sapiens, UniProt P08183); assay: MDR1 LLC-PK1 permeability assay; assay type: in vitro ADME; settings: pig, MDR1 transfected LLC-PK1 cells; for Papp at 2 h, 1 μM: permeability coefficient (Papp)
T2 construct: expressed in transfected cells; host or cells: LLC-PK1
Experimental: MDR1 transfected LLC-PK1 cells were cultured and plated according to manufacturer's recommendations with the exception that the passage media contained only 2% fetal bovine serum to extend passage time out to seven days.
Both positive and negative controls were used to assess functionality of P-gp efflux in the assay. Stock solutions for assay controls and the test article were prepared in DMSO for final test concentrations of 10 and 1 μM, respectively. Final organic concentration in the assay was 1%. All dosing solutions contained 10 μM lucifer yellow to monitor LLC-PK1 cell monolayer integrity.
For the apical to basolateral determination (A to B), 75 μL of the test article in transport buffer were added to the apical side of the individual transwells and 250 μL of basolateral media, without compound or lucifer yellow, were added to each well. For the basolateral to apical determination (B to A), 250 μL of test article in transport buffer were added to each well and 75 μL transport buffer, without compound or lucifer yellow, were added to each transwell. All tests were performed in triplicate, and each compound was tested for both apical to basolateral and basolateral to apical transport. The plates were incubated for 2 hours on a Lab-Line Instruments Titer Orbital Shaker (VWR, West Chester, Pa.) at 50 rpm and 37° C. with 5% CO2. All culture plates were removed from the incubator and 50 μL of media were removed from the apical and basolateral portion of each well and added to 150 μL of 1 μM labetalol in 2:1 acetonitrile (acetonitrile): H2O, v/v.
The plates were read using a Molecular Devices (Sunnyvale, Calif.) Gemini Fluorometer to evaluate the lucifer yellow concentrations at excitation/emission wavelengths of 425/535 nm. These values were accepted when found to be below 2% for apical to basolateral and 5% basolateral to apical flux across the MDR1-transfected LLC-PK1-transfected cell monolayers. The plates were sealed and the contents of each well analyzed by LC-MS/MS. The compound concentrations were determined from the ratio of the peak areas of the compound to the internal standard (labetalol) in comparison to the dosing solution.
The LC-MS/MS system was comprised of an HTS-PAL autosampler (Leap Technologies, Carrboro, N.C.), an HP1200 HPLC (Agilent, Palo Alto, Calif.), and a MDS Sciex 4000 Q Trap system (Applied Biosystems, Foster City, Calif.). […] The total run time, including re-equilibration, for a single injection was 1.2 minutes. Mass spectrometric detection of the analytes was accomplished using the ion spray positive mode. Analyte responses were measured by multiple reaction monitoring (MRM) of transitions unique to each compound (the protonated precursor ion and selected product ions for each test article and m/z 329 to m/z 162 for labetalol, the internal standard).
The permeability coefficient (Papp) is calculated from the following equation: […]
where Cd, V, t and C0 are the detected concentration (μM), the volume on the dosing side (mL), the incubation time (s) and the initial dosing concentration (μM), respectively. The calculations for Papp were made for each replicate and then averaged. In this assay, a compound is defined has having high permeability if the permeability is greater than 8×10^−6 cm/sec, a compound is defined has having medium permeability if the permeability is from 2×10^−6 cm/sec to 8×10^−6 cm/sec, and a compound is defined has having low permeability if the permeability is less than 2×10^−6 cm/sec.
An efflux ratio was calculated from the mean apical to basolateral (A-B) Papp data and basolateral to apical (B-A) Papp data:
Efflux ratio=Papp(B−A)/Papp(A−B)

[3] = LLC-PK1, Papp(B−A)/Papp(A−B), test article 1 μM, 2 hours, 37° C., read-out: Efflux ratio
[4] = LLC-PK1, efflux ratio = Papp(B-A)/Papp(A-B), read-out: MDR1 Pe Ratio

T2 sequence (P08183 whole entry): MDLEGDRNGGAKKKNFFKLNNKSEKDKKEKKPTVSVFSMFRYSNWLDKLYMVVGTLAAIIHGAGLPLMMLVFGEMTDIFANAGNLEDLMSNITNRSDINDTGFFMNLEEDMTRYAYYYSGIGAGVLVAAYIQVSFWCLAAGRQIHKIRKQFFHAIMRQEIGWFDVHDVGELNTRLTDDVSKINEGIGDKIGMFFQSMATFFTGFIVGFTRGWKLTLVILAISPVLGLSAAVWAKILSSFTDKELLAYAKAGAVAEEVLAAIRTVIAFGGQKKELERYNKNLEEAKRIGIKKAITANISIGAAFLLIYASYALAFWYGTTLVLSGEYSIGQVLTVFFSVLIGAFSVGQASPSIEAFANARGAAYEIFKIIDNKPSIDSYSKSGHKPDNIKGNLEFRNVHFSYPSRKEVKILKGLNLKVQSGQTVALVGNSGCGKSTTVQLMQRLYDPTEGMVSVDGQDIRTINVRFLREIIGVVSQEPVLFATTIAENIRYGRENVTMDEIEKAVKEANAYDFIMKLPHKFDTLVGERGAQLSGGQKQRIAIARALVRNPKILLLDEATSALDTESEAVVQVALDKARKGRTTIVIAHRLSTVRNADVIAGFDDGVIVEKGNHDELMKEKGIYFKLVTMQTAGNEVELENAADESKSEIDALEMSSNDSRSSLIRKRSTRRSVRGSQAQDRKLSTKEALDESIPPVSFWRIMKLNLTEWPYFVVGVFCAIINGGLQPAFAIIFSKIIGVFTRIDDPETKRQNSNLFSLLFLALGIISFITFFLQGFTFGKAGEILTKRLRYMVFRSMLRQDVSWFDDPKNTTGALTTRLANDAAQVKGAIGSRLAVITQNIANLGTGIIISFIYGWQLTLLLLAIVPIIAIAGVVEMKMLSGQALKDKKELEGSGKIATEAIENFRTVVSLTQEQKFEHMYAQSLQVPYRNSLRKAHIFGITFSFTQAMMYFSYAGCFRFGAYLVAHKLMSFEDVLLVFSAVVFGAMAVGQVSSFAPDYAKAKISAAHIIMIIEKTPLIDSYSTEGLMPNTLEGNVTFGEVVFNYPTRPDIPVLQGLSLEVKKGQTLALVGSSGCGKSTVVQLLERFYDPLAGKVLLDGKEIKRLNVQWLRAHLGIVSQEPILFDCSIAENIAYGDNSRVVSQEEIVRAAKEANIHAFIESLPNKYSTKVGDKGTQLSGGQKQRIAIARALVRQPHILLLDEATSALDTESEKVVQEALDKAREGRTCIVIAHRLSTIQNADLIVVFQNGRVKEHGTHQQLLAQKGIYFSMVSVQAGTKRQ

Structure (SMILES) | IC50 [1] | efflux ratio at 2 h, 1 μM [2, 3] | efflux ratio at 2 h, 1 μM [2, 4] | Papp at 2 h, 1 μM [2]
COc1cc2nccc(Oc3ccc(NC(=O)c4cn(C(C)C)c(C)c(-c5ccc(F)c(F)c5)c4=O)nc3)c2cc1OC [Example 28, 5-(3,4-difluorophenyl)-N-(5-((6,7-dimethoxyquinolin-4yl)oxy)pyridin-2-yl)-1-isopropyl-6-methyl-4-oxo-1,4-dihydropyridine-3-carboxamide] | 1 nM | 3.5 | 2.8 | 15 ×10⁻⁶ cm/s
CCc1c(-c2ccc(F)cc2)c(=O)c(C(=O)Nc2ccc(Oc3ccnc4cc(OC)c(OC)cc34)cn2)cn1C(C)C [Example 29, N-(5-((6,7-dimethoxyquinolin-4yl)oxy)pyridin-2-yl)-6-ethyl-5-(4-fluorophenyl)-1-isopropyl-4-oxo-1,4-dihydropyridine-3-carboxamide] | 1 nM |  | 3.6 | 10 ×10⁻⁶ cm/s
COc1ccc(-c2cn(C(C)C)cc(C(=O)Nc3ccc(Oc4ccnc5cc(OC)c(OC)cc45)cn3)c2=O)cc1 [Example 30, N-(5-((6,7-dimethoxyquinolin-4yl)oxy)pyridin-2-yl)-1-isopropyl-5-(4-methoxyphenyl)-4-oxo-1,4-dihydropyridine-3-carboxamide] | 2 nM | 3.5 | 3.1 | 7 ×10⁻⁶ cm/s
COc1ccc(-c2cn(C(C)C)cc(C(=O)Nc3ccc(Oc4ccnc5cc(OC)c(OC)cc45)cn3)c2=O)c(F)c1 [Example 31, N-(5-((6,7-dimethoxyquinolin-4yl)oxy)pyridin-2-yl)-5-(2-fluoro-4-methoxyphenyl)-1-isopropyl-4-oxo-1,4-dihydropyridine-3-carboxamide] | 1 nM | 3.5 | 2 | 11 ×10⁻⁶ cm/s
COc1cc2nccc(Oc3ccc(NC(=O)c4cn(C(C)C)cc(-c5ccc(F)cc5OC)c4=O)nc3)c2cc1OC [Example 32, N-(5-((6,7-dimethoxyquinolin-4yl)oxy)pyridin-2-yl)-5-(4-fluoro-2-methoxyphenyl)-1-isopropyl-4-oxo-1,4-dihydropyridine-3-carboxamide] | 2 nM |  | 7.1 | 14 ×10⁻⁶ cm/s
COc1ccc2nccc(Oc3ccc(NC(=O)c4cn(C(C)C)c(C)c(-c5ccc(F)cc5)c4=O)nc3)c2c1 [Example 33, 5-(4-fluorophenyl)-1-isopropyl-N-(5-((6-methoxyquinolin-4-yl)oxy)pyridin-2-yl)-6-methyl-4-oxo-1,4-dihydropyridine-3-carboxamide] | 1 nM | 3.5 | 2 | 10 ×10⁻⁶ cm/s
COc1cc2nccc(Oc3ccc(NC(=O)c4cn(CCC(C)C)cc(-c5ccc(F)cc5)c4=O)nc3)c2cc1OC [Example 34, N-(5-((6,7-dimethoxyquinolin-4yl)oxy)pyridin-2-yl)-5-(4-fluorophenyl)-1-isopentyl-4-oxo-1,4-dihydropyridine-3-carboxamide] | 2 nM |  | 5.3 | < 1 ×10⁻⁶ cm/s
COc1cc2nccc(Oc3ccc(NC(=O)c4cn(CCC(C)C)cc(-c5ccc(F)c(F)c5)c4=O)nc3)c2cc1OC [Example 35, 5-(3,4-difluorophenyl)-N-(5-((6,7-dimethoxyquinolin-4yl)oxy)pyridin-2-yl)-1-isopentyl-4-oxo-1,4-dihydropyridine-3-carboxamide] | 6 nM | 3.5 |  | < 1 ×10⁻⁶ cm/s
COc1cc2nccc(Oc3ccc(NC(=O)c4cn(CCC(C)C)cc(-c5ccc(F)cc5F)c4=O)nc3)c2cc1OC [Example 36, 5-(2,4-difluorophenyl)-N-(5-((6,7-dimethoxyquinolin-4yl)oxy)pyridin-2-yl)-1-isopentyl-4-oxo-1,4-dihydropyridine-3-carboxamide] | 3 nM |  | 4.3 | 1 ×10⁻⁶ cm/s
COc1cc2nccc(Oc3ccc(NC(=O)c4cn(CCC(C)C)cc(-c5ccc(Cl)cc5)c4=O)nc3)c2cc1OC [Example 37] | 5 nM |  | 13 | < 1 ×10⁻⁶ cm/s
COc1cc2nccc(Oc3ccc(NC(=O)c4cn(C(C)C)c(C(C)C)c(-c5ccc(F)cc5)c4=O)nc3)c2cc1OC [Example 38, N-(5-((6,7-dimethoxyquinolin-4yl)oxy)pyridin-2-yl)-5-(4-fluorophenyl)-1,6-diisopropyl-4-oxo-1,4-dihydropyridine-3-carboxamide] | 3 nM |  |  | 25 ×10⁻⁶ cm/s
CCn1cc(C(=O)Nc2ccc(Oc3ccnc4ccc(OC)cc34)cn2)c(=O)c(-c2ccc(F)cc2)c1 [Example 39, 1-ethyl-5-(4-fluorophenyl)-N-(5-((6-methoxyquinolin-4-yl)oxy)pyridin-2-yl)-4-oxo-1,4-dihydropyridine-3-carboxamide] | 3 nM | 3.5 | 0.9 | 7 ×10⁻⁶ cm/s
COc1ccc2nccc(Oc3ccc(NC(=O)c4cn(C)cc(-c5ccc(F)cc5)c4=O)nc3)c2c1 [Example 41, 5-(4-fluorophenyl)-N-(5-((6-methoxyquinolin-4yl)oxy)pyridin-2-yl)-1-methyl-4-oxo-1,4-dihydropyridine-3-carboxamide] | 5 nM | 3.5 | 2.5 | 7 ×10⁻⁶ cm/s
COc1cc2nccc(Oc3ccc(NC(=O)c4cn(CCN(C)C)cc(-c5ccc(Cl)cc5)c4=O)nc3)c2cc1OC [Example 42] | 2 nM |  | 12 | 
COc1cc2nccc(Oc3ccc(NC(=O)c4cn(CCN(C)C)cc(-c5ccc(F)c(F)c5)c4=O)nc3)c2cc1OC [Example 43, 5-(3,4-difluorophenyl)-N-(5-((6,7-dimethoxyquinolin-4-yl)oxy)pyridin-2-yl)-1-] | 2 nM |  | 13 | 
COc1cc2nccc(Oc3ccc(NC(=O)c4cn(CCN(C)C)cc(-c5ccc(F)cc5F)c4=O)nc3)c2cc1OC [Example 44, 5-(2,4-difluorophenyl)-N-(5-((6,7-dimethoxyquinolin-4-yl)oxy)pyridin-2-yl)-1-(2-(dimethylamino)ethyl)-4-oxo-1,4-dihydropyridine-3-carboxamide] | 2 nM |  | 11 | 2 ×10⁻⁶ cm/s
COc1cc2nccc(Oc3ccc(NC(=O)c4cn(C)c(C(C)C)c(-c5ccc(F)cc5)c4=O)nc3)c2cc1OC [Example 45, N-(5-((6,7-dimethoxyquinolin-4-yl)oxy)pyridin-2-yl)-5-(4-fluorophenyl)-6-isopropyl-1-methyl-4-oxo-1,4-dihydropyridine-3-carboxamide] | 5 nM |  | 16 | 5 ×10⁻⁶ cm/s
